Results on 16 compounds are retold here after patent publication US10898469B2, “Imidazolylamide derivative” (Sumitomo Dainippon Pharma Co., Ltd., priority 2016, dated 2021).

Common to all, as to format: cell-based, human
Experiment [1] deals with HCT-116 cells. Nature of the experiment: Inhibition test for sphere-forming ability of cancer cells (Test Example 1), HCT-116. As to conditions: for IC50: HCT-116 cells, concentration for 50% inhibition of cell proliferation, read-out: IC50 (μmol/L) HCT-116 (Sphere IC50 value); for inhibitory effect on the sphere-forming ability of cancer cells: Test Example 1, summary in words, cell line not given (HCT-116, HT-29, FaDu tested). The essentials:
(§1)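 Sphere IC50 (μmol/L) derived from CellTiter-Glo luminescence after 4 days of compound treatment (final DMSO 0.1%). Non-adherent, serum-free culture of 350-800 cells/well in DMEM/F12 supplemented with 2% B27, EGF, bFGF and insulin assessed self-renewal.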

For experiment [2], the system named is HCT-116 cells. Nature of the experiment: Inhibition test for sphere-forming ability of cancer cells in the presence of BSA (Test Example 2), HCT-116. As to conditions: for IC50: HCT-116 cells, in the presence of 5% BSA, cultured 4 days; for inhibitory effect on the sphere-forming ability of cancer cells: Test Example 2, in the presence of 5% BSA, summary in words, cell line not given (HCT-116, HT-29, FaDu tested). Here is the method:
(§2) Human colorectal cancer-derived HCT-116 cells, human colon-adenocarcinoma-derived HT-29 cells, and human pharyngeal cancer-derived FaDu cells were available from American Type Culture Collection (ATCC). HCT-116 cells and HT-29 cells were cultured at 37° C. under 5% CO2 using the McCoy's 5a medium containing 10% fetal bovine serum (FBS) and 1% penicillin/streptomycin, and FaDu cells were cultured at 37° C. under 5% CO2 using the MEM medium containing 10% FBS, 1% non-essential amino acid, 1% sodium pyruvate, 5% bovine serum albumin (BSA), and 1% penicillin/streptomycin. HCT-116 cells, HT-29 cells, and FaDu cells were seeded in a 384 Well Black Clear Bottom Ultra-Low Attachment Microplate (Corning Cat. No. 3827) in an amount of 350-800 cells/well using the DMEM/F12 medium containing 2% B27 supplement (GIBCO), 20 ng/mL epidermal growth factor (EGF) (peprotech), 10 ng/mL basic fibroblast growth factor (bFGF) (peprotech), 5 μg/mL insulin (Sigma), 5% bovine serum albumin (BSA), and 1% penicillin/streptomycin. Each test compound was added into each well to adjust the final concentration of DMSO to 0.1%, and the cells were cultured for 4 days. The number of viable cells in each well was then measured with CellTiter-Glo® Luminescent Cell Viability Assay (Promega) to calculate the concentration of each test compound for 50% inhibition of cell proliferation (Sphere IC50 value; μmol/L).
(§3) The experiment of Test Example 2 was performed for each compound of each Example.
(§4) The concentration of each test compound for 50% inhibition of cell proliferation (Sphere IC50 value; μmol/L) is shown in the following Table.

The test system of experiment [3] is FaDu cells. Put plainly: Inhibition test for sphere-forming ability of cancer cells (Test Example 1), FaDu. As to conditions: concentration for 50% inhibition of cell proliferation, read-out: IC50 (μmol/L) FaDu (Sphere IC50 value). The essentials: as §1
In experiment [4] the test system is HT-29 cells. Put plainly: Inhibition test for sphere-forming ability of cancer cells (Test Example 1), HT-29. As to conditions: concentration for 50% inhibition of cell proliferation, read-out: IC50 (μmol/L) HT-29 (Sphere IC50 value). The essentials: as §1
Experiment [5] deals with FaDu cells. Nature of the experiment: Inhibition test for sphere-forming ability of cancer cells in the presence of BSA (Test Example 2), FaDu. As to conditions: in the presence of 5% BSA, cultured 4 days. The procedure:
as §2, §3, §4

For experiment [6], the system named is HT-29 cells. Put plainly: Inhibition test for sphere-forming ability of cancer cells in the presence of BSA (Test Example 2), HT-29. The conditions noted are these: in the presence of 5% BSA, cultured 4 days. Here is the method: as §2, §3, §4

With `CCCC(=O)Nc1ccc(/C=C/C(=O)Nc2cn(Cc3cccc(Cl)c3)cn2)cc1` [Example 6, (E)-N-(4-(3-((1-(3-Chlorobenzyl)-1H-imidazol-4-yl)amino)-3-oxoprop-1-en-1-yl)phenyl)butylamide], the IC50 worked out at 0.55 µmol/L with HCT-116 cells [1] (Homo sapiens); 830 nM in the experiment with HCT-116 cells [2] (Homo sapiens, HCT-116, 96 h); 0.17 µmol/L with FaDu cells [3] (Homo sapiens); 0.18 µmol/L with HT-29 cells [4] (Homo sapiens); 600 nM in the experiment on FaDu cells [5] (Homo sapiens, 96 h); 620 nM in the experiment with HT-29 cells [6] (Homo sapiens, 96 h).

For the compound `O=C(/C=C/c1ccc(NC(=O)CO)cc1)Nc1cn(Cc2cccc(Cl)c2)cn1` [Example 7, (E)-N-(1-(3-Chlorobenzyl)-1H-imidazol-4-yl)-3-(4-(2-hydroxyacetylamino)phenyl)acrylamide], the IC50 worked out at 0.66 µmol/L in the experiment with HCT-116 cells [1] (Homo sapiens); 790 nM in the experiment on HCT-116 cells [2] (Homo sapiens, HCT-116, 96 h); 0.35 µmol/L in the experiment with FaDu cells [3] (Homo sapiens); 0.13 µmol/L in the experiment with HT-29 cells [4] (Homo sapiens); 460 nM in the experiment on FaDu cells [5] (Homo sapiens, 96 h); 550 nM in the experiment with HT-29 cells [6] (Homo sapiens, 96 h).

As for `CC(=O)Nc1ccc(/C=C/C(=O)Nc2cn(Cc3cccc(C(F)(F)F)c3)cn2)cc1` [Example 8, (2E)-3-[4-(acetylamino)phenyl]-N-{1-[3-(trifluoromethyl)benzyl]-1H-imidazol-4-yl}prop-2-enamide], the IC50 amounted to 0.31 µmol/L in the experiment with HCT-116 cells [1] (Homo sapiens); 630 nM in the experiment with HCT-116 cells [2] (Homo sapiens, HCT-116, 96 h); 0.06 µmol/L in the experiment on FaDu cells [3] (Homo sapiens); 0.05 µmol/L in the experiment on HT-29 cells [4] (Homo sapiens); 70 nM in the experiment on FaDu cells [5] (Homo sapiens, 96 h); 370 nM in the experiment with HT-29 cells [6] (Homo sapiens, 96 h). Also, the “inhibitory effect on the sphere-forming ability of cancer cells” value (“inhibitory effect” for short) with HCT-116 cells [1] and in the experiment on HCT-116 cells [2] was “particularly potent inhibitory effect” throughout.

For `CC(=O)Nc1ccc(/C=C/C(=O)Nc2cn(Cc3cccc(OC(F)(F)F)c3)cn2)cc1` [Example 10, (2E)-3-[4-(acetylamino)phenyl]-N-{1-[3-(trifluoromethoxy)benzyl]-1H-imidazol-4-yl}prop-2-enamide], the IC50 with HCT-116 cells [1] (Homo sapiens) was determined as 0.63 µmol/L; in the experiment on HCT-116 cells [2] (Homo sapiens, HCT-116, 96 h), 830 nM; in the experiment with FaDu cells [3] (Homo sapiens), 0.07 µmol/L; in the experiment on HT-29 cells [4] (Homo sapiens), 0.07 µmol/L; in the experiment with FaDu cells [5] (Homo sapiens, 96 h), 280 nM; in the experiment on HT-29 cells [6] (Homo sapiens, 96 h) it was 550 nM.

On to `CC(=O)Nc1ccc(/C=C/C(=O)Nc2cn(Cc3cc(F)c(F)c(F)c3)cn2)cc1` [Example 11, (2E)-3-[4-(acetylamino)phenyl]-N-[1-(3,4,5-trifluorobenzyl)-1H-imidazol-4-yl]prop-2-enamide], for which the IC50 in the experiment on HCT-116 cells [1] (Homo sapiens) was under 0.01 µmol/L; in the experiment on HCT-116 cells [2] (Homo sapiens, HCT-116, 96 h), 260 nM; with FaDu cells [3] (Homo sapiens) it was 0.08 µmol/L; with HT-29 cells [4] (Homo sapiens), 0.08 µmol/L; with FaDu cells [5] (Homo sapiens, 96 h) it was 60 nM; in the experiment with HT-29 cells [6] (Homo sapiens, 96 h), 70 nM. The “inhibitory effect” value in the experiment on HCT-116 cells [1] and in the experiment on HCT-116 cells [2] was “particularly potent inhibitory effect” in each case.

As to `O=C(/C=C/c1ccc(NCC(F)F)nc1)Nc1cn(Cc2cccc(Cl)c2)cn1` [Example 14, (E)-N-(1-(3-Chlorobenzyl)-1H-imidazol-4-yl)-3-(6-((2,2-difluoroethyl)amino)pyridin-3-yl)acrylamide], the IC50 was 0.06 µmol/L with HCT-116 cells [1] (Homo sapiens); 360 nM in the experiment on HCT-116 cells [2] (Homo sapiens, HCT-116, 96 h); 0.04 µmol/L in the experiment on FaDu cells [3] (Homo sapiens); under 0.01 µmol/L with HT-29 cells [4] (Homo sapiens); 60 nM with FaDu cells [5] (Homo sapiens, 96 h); 60 nM in the experiment on HT-29 cells [6] (Homo sapiens, 96 h). Moreover, the “inhibitory effect” value with HCT-116 cells [1] and in the experiment with HCT-116 cells [2] was “particularly potent inhibitory effect” each time.

Take `O=C(/C=C/c1ccc(NCC(F)(F)F)nc1)Nc1cn(Cc2cccc(Cl)c2)cn1` [Example 15]: the IC50 with HCT-116 cells [1] was under 0.01 µmol/L; in the experiment on HCT-116 cells [2], 80 nM; with FaDu cells [3], 0.07 µmol/L; in the experiment on HT-29 cells [4], 0.06 µmol/L; with FaDu cells [5], 60 nM; in the experiment with HT-29 cells [6], 60 nM. Also, the “inhibitory effect” value in the experiment on HCT-116 cells [1] and with HCT-116 cells [2] was “particularly potent inhibitory effect” in each case.

`CNc1ccc(/C=C/C(=O)Nc2cn(Cc3cccc(Cl)c3)cn2)cn1` [Example 16]: the IC50 in the experiment with HCT-116 cells [1] worked out at 0.31 µmol/L; in the experiment on HCT-116 cells [2], 640 nM; in the experiment with FaDu cells [3], 0.08 µmol/L; in the experiment with HT-29 cells [4], 0.06 µmol/L; in the experiment on FaDu cells [5], 70 nM; with HT-29 cells [6] it was 500 nM. The “inhibitory effect” value with HCT-116 cells [1] and with HCT-116 cells [2] was “particularly potent inhibitory effect” throughout.

For `CNc1ccc(/C=C/C(=O)Nc2cn(Cc3cccc(C(F)(F)F)c3)cn2)cn1` [Example 17], the IC50 in the experiment on HCT-116 cells [1] was determined as 0.08 µmol/L; in the experiment on HCT-116 cells [2], 640 nM; in the experiment on FaDu cells [3], 0.08 µmol/L; in the experiment with HT-29 cells [4], 0.04 µmol/L; in the experiment on FaDu cells [5] it was 50 nM; in the experiment on HT-29 cells [6] it was 350 nM. For the same compound, the “inhibitory effect” value with HCT-116 cells [1] and with HCT-116 cells [2] was “particularly potent inhibitory effect” in each case.

With `CCNc1ccc(/C=C/C(=O)Nc2cn(Cc3cccc(Cl)c3)cn2)cn1` [Example 18], the IC50 turned out to be 0.07 µmol/L in the experiment with HCT-116 cells [1]; 580 nM with HCT-116 cells [2]; 0.06 µmol/L in the experiment on FaDu cells [3]; 0.02 µmol/L with HT-29 cells [4]; 30 nM in the experiment with FaDu cells [5]; 50 nM in the experiment with HT-29 cells [6]. The “inhibitory effect” value in the experiment with HCT-116 cells [1] and in the experiment on HCT-116 cells [2] was “particularly potent inhibitory effect” in each case.

For the compound `O=C(Nc1cn(Cc2cccc(C(F)(F)F)c2)cn1)c1ccc(NCC(F)(F)F)nc1` [Example 249], the IC50 in the experiment on HCT-116 cells [1] (Homo sapiens) came out at 0.49 µmol/L; in the experiment with HCT-116 cells [2] (Homo sapiens, HCT-116, 96 h), 2420 nM; in the experiment with HT-29 cells [4] (Homo sapiens), 0.29 µmol/L; with HT-29 cells [6] (Homo sapiens, 96 h), 490 nM.

Take `Cc1ccc2cc(NC(=O)c3cn(Cc4cc(F)c(F)c(F)c4)cn3)ccc2n1` [Example 252]: the IC50 with HCT-116 cells [1] was 0.03 µmol/L; with HCT-116 cells [2], 80 nM; in the experiment with HT-29 cells [4] it was under 0.01 µmol/L; in the experiment with HT-29 cells [6], 50 nM. Further, the “inhibitory effect” value in the experiment with HCT-116 cells [1] and in the experiment on HCT-116 cells [2] was “particularly potent inhibitory effect” in each case.

As for `O=C(Nc1ccc(CO)cc1)c1cn(Cc2cc(F)c(F)c(F)c2)cn1` [Example 253], the IC50 in the experiment with HCT-116 cells [1] is 0.07 µmol/L; in the experiment with HCT-116 cells [2], 570 nM; with HT-29 cells [4], 0.08 µmol/L; in the experiment on HT-29 cells [6], 70 nM. Moreover, the “inhibitory effect” value with HCT-116 cells [1] and in the experiment with HCT-116 cells [2] was “particularly potent inhibitory effect” throughout.

Turning to `Cc1ccc2cc(NC(=O)c3cn(Cc4cccc(Cl)c4)cn3)ccc2n1` [Example 255, 1-(3-Chlorobenzyl)-N-(2-methylquinolin-6-yl)-1H-imidazole-4-carboxamide], the IC50 was 0.06 µmol/L in the experiment with HCT-116 cells [1] (Homo sapiens); 630 nM with HCT-116 cells [2] (Homo sapiens, HCT-116, 96 h); under 0.01 µmol/L with HT-29 cells [4] (Homo sapiens); 390 nM with HT-29 cells [6] (Homo sapiens, 96 h). In the experiment on HCT-116 cells [1], the “inhibitory effect” value is “particularly potent inhibitory effect”.

Consider `COc1ccc(NC(=O)c2cn(Cc3cccc(Cl)c3)cn2)cc1OC` [Example 262], for which the IC50 turned out to be 0.83 µmol/L in the experiment with HCT-116 cells [1], 6050 nM with HCT-116 cells [2], 0.6 µmol/L in the experiment with HT-29 cells [4] and 720 nM in the experiment on HT-29 cells [6].

For the compound `O=C(Nc1cccnc1)c1cn(Cc2cccc(Cl)c2)cn1` [Example 264], the IC50 with HCT-116 cells [1] is 8.49 µmol/L; in the experiment on HCT-116 cells [2], over 10000 nM; in the experiment with HT-29 cells [4], 6.04 µmol/L; in the experiment with HT-29 cells [6], 6270 nM.
